Source: patent US5643893A, “N-substituted-(Dihydroxyboryl)alkyl purine, indole and pyrimidine derivatives, useful as inhibitors of inflammatory cytokines” (Macronex, Inc., priority 1994, dated 1997)
Blank lines part the entries; values can stand above or below the molecule they belong to.

Columns and labels:
[1] = system: HIV-1; conditions: 12 weeks, p<0.05; cited from earlier work
[2] = system: Monocytes; assay: Inhibition of monocyte chemotaxis; type: cell-based, human; set-up: key: NE: No effect; NT: Not tested; INHIB: Inhibition; STIM: Stimulation; TC: Tolerated Concentration; conditions: chemoattractant FMLP
Description: Inhibition of Monocyte Chemotaxis:
Monocytes are prepared as previously described, and resuspended at 5×10^6 cells/ml in HBSS, 0.1% BSA (HBSS-BSA). Fluorophore labeling of the cells is carried out by adding calcein-AM to the above cells at a final concentration of 2 μM. Following a 30 minute incubation at 37° C. in humidified 5% CO2, the labeled monocytes are washed twice and incubated in a range of dilutions of the test materials for 60 minutes at 37° C. in humidified 5% CO2. The pre-treated, calcein-AM loaded cells are then added in triplicate to the wells of the top compartment of a NeuroProbe (Cabin, John, M.D.) 96-well chemotaxis chamber (2×10^5 cells/well) and permitted to migrate through a 10 μm thick bonded polycarbonate membrane (5 μm porosity; NeuroProbe Inc; Cabin, John, M.D.) towards the wells of the lower compartment containing the chemoattractant (FMLP) at 5×10^-9 M. After a 90 minute incubation at 37° C. in a humidified chamber, the wells of the upper chambers are aspirated, the monocyte-associated membrane removed, non-migrating cells wiped off and the filters permitted to air dry to 15 minutes. The number of cells migrating through the membranes are quantified by measuring the fluorescent intensity of the migrating cells in a fluorescent microplate reader (CytoFluor 2300, Millipore Corp., Bedford, Mass.)

[3] = LDH; type: cell-based; conditions: printed in the EC50 column; effect TC; read-out: TC Tolerated Concentration (LDH)
[4] = system: PAF; assay: Monocyte release of PAF; type: cell-based, human; set-up: key: NE: No effect; NT: Not tested; INHIB: Inhibition; STIM: Stimulation; TC: Tolerated Concentration; conditions: zymosan A
Description: (§1) Monocyte Release of PGE2, LTB4, and PAF:
(§2) Monocytes isolated as described above, were washed and resuspended in RPMl containing 5 mg/ml HSA at 2×10^6 cells/ml and added to wells of a 48-well plates. The cells were allowed to adhere for 2 hours then washed in HBSS-BSA-HEPES buffer. Test materials were added at four concentrations (175 μl) for 60 minutes; then the monocytes were stimulated by addition of […] zymosan A (175 μl of 2× desired final concentration added). Supernatant medium was collected from the wells after 90 minutes incubation and stored at -20° C. until assayed. Supernatants were assayed for PGE2, LTB4 or PAF using specific scintillation proximity assays (SPA).

[5] = system: IL6; assay: Monocyte release of IL-6; type: cell-based, human; set-up: key: NE: No effect; NT: Not tested; INHIB: Inhibition; STIM: Stimulation; TC: Tolerated Concentration; conditions: LPS 100 ng/ml
[6] = system: SUPEROXIDE; assay: Monocyte superoxide anion (O2) release; type: cell-based, human; set-up: key: NE: No effect; NT: Not tested; INHIB: Inhibition; STIM: Stimulation; TC: Tolerated Concentration; conditions: zymosan A
Description: Monocyte Superoxide Anion (O2) Release:
Monocytes are prepared as described above and resuspended to 5×10^6 /ml in HBSS containing 10 Mm HEPES, 2 g/l glucose, 0.1% BSA, Ph 7.2. To each well of a 96-well flat bottom, tissue culture plate is added 100 μl of cell suspension and 100 μl of buffer or test materials. Samples are run in quadruplicate. The plate is incubated for 60 minutes at 37° C. followed by the addition of 50 μl of buffer containing cytochrome C (5 mg/ml; type VI, horse heart, Sigma) and bovine liver catalase (1500 U/ml; Sigma) in the presence of zymosan A (ZYM); 750 μg/ml; Sigma). The plate is incubated an additional 120 minutes at 37° C. during which the absorbance at 550 nm is monitored using a microplate reader incorporating dedicated software for kinetic analysis (Molecular Devices; Menlo Park, Calif.).

[7] = system: TNFα; assay: Monocyte release of TNF-α; type: cell-based; conditions: Homo sapiens, effect INHIB (Inhibition), LPS 100 ng/ml
[8] = system: IL1β; assay: Monocyte release of IL-1β; type: cell-based, human; set-up: key: NE: No effect; NT: Not tested; INHIB: Inhibition; STIM: Stimulation; TC: Tolerated Concentration; conditions: LPS 100 ng/ml
[9] = system: IL8; assay: Monocyte release of IL-8; type: cell-based, human; set-up: key: NE: No effect; NT: Not tested; INHIB: Inhibition; STIM: Stimulation; TC: Tolerated Concentration; conditions: LPS 100 ng/ml
[10] = system: PBMC; assay: Two-way mixed lymphocyte reaction (MLR); type: cell-based; conditions: Homo sapiens, effect INHIB (Inhibition)
Description: (§3) Unless otherwise described the medium for human cell culture assays is defined as follows: RPMI-1640 is supplemented with 100 U/ml penicillin, 100 μg/ml streptomycin, 2 mM L-glutamine; 1 mM Na pyruvate; 1% MEM non-essential amino acids and 25 mM HEPES; (all from GIBCO, Gaithersburg, Md.). Complete medium is defined as medium supplemented with 5% pooled, heat-inactivated (56° C., 30 minutes) human AB serum (Pel-freeze, Brown Deer, Wis.).
Two-Way Mixed Lymphocyte Reaction (MLR):
PBMC are prepared as described for the mitogen assays, but resuspended to 2×10^6 cells/ml in complete medium. Fifty μl of cell suspension from two different individuals is then added to each well of a 96-well flat bottom tissue culture plate. An additional 100 μl of complete medium, dexamethasone or test compounds are then added to each well, the plates are incubated for 6 days at 37° C., and then pulsed with ^3 H-thymidine and harvested as previously described.

[11] = system: GM-CSF; assay: Monocyte release of GM-CSF; type: cell-based; conditions: Homo sapiens, effect INHIB (Inhibition), LPS 100 ng/ml
[12] = system: IL1ra; assay: Monocyte release of IL-1 receptor antagonist; type: cell-based, human; set-up: key: NE: No effect; NT: Not tested; INHIB: Inhibition; STIM: Stimulation; TC: Tolerated Concentration
[13] = system: LTB4; assay: Monocyte release of LTB4; type: cell-based; conditions: Homo sapiens, effect INHIB (Inhibition), zymosan A
Description: as §1, §2

[14] = system: TISSUE FACTOR; assay: Monocyte procoagulant activity (Tissue Factor); type: cell-based; conditions: Homo sapiens, effect INHIB (Inhibition)
Description: Purified monocytes prepared as described above are suspended at 4×10^6 cells/ml in complete medium. To each well of a 48-well flat bottomed tissue culture plate is added 0.125 ml of cell suspension. Test materials (diluted in complete medium at 2× the desired final concentration) are added in 250 μl volumes to each well. Control wells receive 250 μl of complete medium or 250 μl of IL-4 (diluted to×2 the desired final concentration of 50 ng/ml). All samples are tested at four concentrations in the presence or absence of 100 ng/ml LPS (125 μl of 4× desired final concentration added) and incubated at 37° C. in humidified 5% CO2, for 16 hours. At this time, culture supernatants are aspirated off, and the unattached cells and cell debris are removed by a 2 minute spin in a microcentrifuge at 10,000 g.l The release of cytokines and growth factors is determined in the cell-free supernatants using ELISA capture assays. In this way, testing for IL-1β, TNF-α, IL-1 receptor antagonist, IL-6, IL-8, GM-CSF and PDGF is conducted.
Monocyte Procoagulant Activity (Tissue Factor):
The adhered monocytes remaining on the 48-well tissue culture plates after removal of the supernatants above, are used to measure levels of Tissue Factor production. The cells are solubilized overnight at 4° C. in 10% Triton-×100 in PBS, diluted to 1% Triton-×100 with PBS then assayed by ELISA for Tissue Factor.

[15] = MTS; type: cell-based; conditions: printed in the EC50 column; effect TC; read-out: TC Tolerated Concentration (MTS)
[16] = system: PBMC; assay: PBMC proliferation to mitogen PHA; type: cell-based; conditions: Homo sapiens, effect INHIB (Inhibition), PHA 1.0 μg/ml
Description: as §3
Human Peripheral Blood Mononuclear Cell (PBMC) Isolation:
Venous blood is obtained from healthy volunteers and mixed with an equal volume of sterile isotonic saline/10 mM HEPES and placed into 50 ml conical polypropylene tubes in 30 ml aliquots. Each aliquot of diluted blood is underlaid with 20-25 ml of sterile Lymphocyte Separation Medium (LSM; Organon-Technika, Durham, N.C.). The tubes are centrifuged at 400 g for 40 minutes at room temperature. […] Cell concentrations for each donor are determined by counting in an haematology analyser (Serono-Baker). […]
PBMC are adjusted to 4×10^6 /ml in complete medium. […] The contents of the wells are harvested onto glass fibre filters using a multiple automated sample harvester (Tomtec), and the incorporated ^3 H-thymidine determined by liquid scintillation spectrophotometry and represented an cpm (counts per minute) incorporated per well.

[17] = system: HIV-1 in peripheral blood mononuclear cells; conditions: advanced HIV-1 infection and AIDS; cited from earlier work
[18] = system: TNF-α; conditions: cited from earlier work
[19] = system: latent HIV-1 in a monocytoid (U1) cell line; conditions: cited from earlier work

SMILES: Cc1cn([C@H]2C[C@H](N=[N+]=[N-])[C@@H](CO)O2)c(=O)[nH]c1=O [zidovudine]
- mean HIV-1 viral load (levels with either agent alone) [1]: 8- to 9 fold

- EC50 [7]: 0.57 µM
- EC50 [11]: 6.8 µM
- EC50 [13]: 90.5 µM
- EC50 [14]: 2.1 µM
SMILES: Nc1nc(Cl)c2ncn(CCCCB(O)O)c2n1 [2-Amino-6-chloro-9-(4-dihydroxyborylbutyl)purine]
- EFFECT (CHEMOTAXIS) [2]: NE
- MNTC [3]: 100 µM
- EFFECT (PAF) [4]: NE
- EFFECT (IL6) [5]: NE
- EFFECT (SUPEROXIDE) [6]: NE
- EFFECT (IL1β) [8]: NE
- EFFECT (IL8) [9]: NE
- EC50 [10]: 50 µM
- EFFECT (IL1ra) [12]: NE
- MNTC [15]: 100 µM
- EC50 [16]: 100 µM

SMILES: CC(=O)CCCCn1c(=O)c2c(ncn2C)n(C)c1=O [Pentoxifylline]
- mean HIV-1 viral load (levels with either agent alone) [1]: 8- to 9 fold

SMILES: O=C1CCC(N2C(=O)c3ccccc3C2=O)C(=O)N1 (centres unmarked) [Thalidomide]
- inhibition of activation of virus in PBMC, patients [17]: 16 out of 17
- agonist-induced TNF-α protein and mRNA production [18]: reduction
- activation of latent HIV-1 [19]: suppress the activation of latent HIV-1
